Target: T1, F508del (Homo sapiens, UniProt P13569, DEL508-508)
T1 construct: expressed in transfected cells
Assay: Protocol 1: membrane potential optical assay (FLIPR III, voltage sensing dye), identification of potentiator compounds
Assay type: cell-based
Conditions: Table 3, compounds of Table 1
How it was run: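 Read-out: change in voltage-sensing dye fluorescence (FLIPR III) as a measure of F508del conductance. Temperature-corrected (27° C, 24 hrs) NIH 3T3 cells expressing F508del are pretreated with potentiators, dye-loaded, then stimulated with forskolin under a chloride ion gradient using chloride-free gluconate bath.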

T1 sequence (P13569 with tags, fused parts or gaps DEL508-508): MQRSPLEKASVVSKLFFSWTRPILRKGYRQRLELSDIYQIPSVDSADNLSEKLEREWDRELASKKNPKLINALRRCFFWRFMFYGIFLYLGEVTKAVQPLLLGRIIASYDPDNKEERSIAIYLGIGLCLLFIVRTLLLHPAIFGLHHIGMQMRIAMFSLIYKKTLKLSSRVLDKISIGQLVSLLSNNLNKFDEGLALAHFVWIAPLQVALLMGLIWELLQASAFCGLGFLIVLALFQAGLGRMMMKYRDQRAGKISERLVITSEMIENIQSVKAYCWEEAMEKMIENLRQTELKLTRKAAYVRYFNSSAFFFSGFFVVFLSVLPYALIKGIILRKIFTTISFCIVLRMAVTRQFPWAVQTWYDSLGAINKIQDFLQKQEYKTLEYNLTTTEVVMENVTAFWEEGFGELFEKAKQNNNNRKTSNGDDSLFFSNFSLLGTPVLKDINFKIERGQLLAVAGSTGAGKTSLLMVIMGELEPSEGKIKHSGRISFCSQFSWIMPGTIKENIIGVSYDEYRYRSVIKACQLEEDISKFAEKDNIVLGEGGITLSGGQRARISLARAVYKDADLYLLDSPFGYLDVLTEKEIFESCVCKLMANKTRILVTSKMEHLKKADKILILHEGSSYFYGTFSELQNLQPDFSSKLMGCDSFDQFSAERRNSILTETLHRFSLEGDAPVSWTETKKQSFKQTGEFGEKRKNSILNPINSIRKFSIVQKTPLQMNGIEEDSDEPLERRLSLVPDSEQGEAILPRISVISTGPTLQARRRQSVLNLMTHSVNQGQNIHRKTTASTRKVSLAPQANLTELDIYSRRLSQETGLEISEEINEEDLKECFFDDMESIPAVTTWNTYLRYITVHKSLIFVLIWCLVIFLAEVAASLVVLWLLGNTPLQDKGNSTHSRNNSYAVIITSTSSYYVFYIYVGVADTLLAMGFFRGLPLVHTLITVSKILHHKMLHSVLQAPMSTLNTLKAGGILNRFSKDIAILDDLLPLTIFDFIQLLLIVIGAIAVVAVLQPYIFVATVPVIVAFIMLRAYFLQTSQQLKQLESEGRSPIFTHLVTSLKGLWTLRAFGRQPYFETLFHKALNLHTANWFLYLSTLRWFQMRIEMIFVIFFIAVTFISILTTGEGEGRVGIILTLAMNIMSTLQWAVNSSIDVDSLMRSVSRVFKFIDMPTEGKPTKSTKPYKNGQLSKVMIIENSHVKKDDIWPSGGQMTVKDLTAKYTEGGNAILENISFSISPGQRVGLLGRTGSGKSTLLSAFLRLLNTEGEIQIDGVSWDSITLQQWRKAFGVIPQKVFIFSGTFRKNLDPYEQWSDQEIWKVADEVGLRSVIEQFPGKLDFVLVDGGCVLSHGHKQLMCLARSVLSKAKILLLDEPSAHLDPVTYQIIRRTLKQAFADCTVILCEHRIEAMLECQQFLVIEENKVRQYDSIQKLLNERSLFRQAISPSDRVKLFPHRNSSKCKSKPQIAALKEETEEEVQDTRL

EC30 | SMILES
+++ (“+++” means <3 uM) | Cc1ccc(F)c(-c2ccc(C(=O)NS(=O)(=O)c3ccc[nH]c3=O)c(N3C[C@@H](C)CC3(C)C)n2)c1 [Compound 1946, 6-(2-fluoro-5-methyl-phenyl)-N-[(2-oxo-1H-pyridin-3-yl)sulfonyl]-2-[(4S)-2,2,4-trimethylpyrrolidin-1-yl]pyridine-3-carboxamide]
++ (“++” means between 3 uM and 10 uM) | C[C@@H]1CN(c2nc(-c3ccc(F)cc3F)ccc2C(=O)NS(=O)(=O)N2CC[C@H](N)C2)C(C)(C)C1 [Compound 1947, N-[(3S)-3-aminopyrrolidin-1-yl]sulfonyl-6-(2,4-difluorophenyl)-2-[(4S)-2,2,4-trimethylpyrrolidin-1-yl]pyridine-3-carboxamide]
+++ (“+++” means <3 uM) | CCOCCOc1cc(-c2ccc(C(=O)NS(=O)(=O)c3cccc(N)n3)c(N3C[C@@H](C)CC3(C)C)n2)cc(C)n1 [Compound 1948, N-[(6-amino-2-pyridyl)sulfonyl]-6-[2-(2-ethoxyethoxy)-6-methyl-4-pyridyl]-2-[(4S)-2,2,4-trimethylpyrrolidin-1-yl]pyridine-3-carboxamide]
+++ (“+++” means <3 uM) | CC(=O)c1cccc(Nc2cccc(S(=O)(=O)NC(=O)c3cccnc3N3CC(C)CC3(C)C)n2)c1 (centres unmarked) [Compound 1949, N—[[6-(3-acetylanilino)-2-pyridyl]sulfonyl]-2-(2,2,4-trimethylpyrrolidin-1-yl)pyridine-3-carboxamide]
+++ (“+++” means <3 uM) | CC1CN(c2ncc(-c3cccc(C(F)(F)F)c3)cc2C(=O)NS(=O)(=O)c2cccc(N)n2)C(C)(C)C1 (centres unmarked) [Compound 1950, N-[(6-amino-2-pyridyl)sulfonyl]-5-[3-(trifluoromethyl)phenyl]-2-(2,2,4-trimethylpyrrolidin-1-yl)pyridine-3-carboxamide]
+++ (“+++” means <3 uM) | Cc1ccc(C)c(-c2ccc(C(=O)NS(=O)(=O)c3cccnc3N)c(N3C[C@@H](C)CC3(C)C)n2)c1 [Compound 1951, N-[(2-amino-3-pyridyl)sulfonyl]-6-(2,5-dimethylphenyl)-2-[(4S)-2,2,4-trimethylpyrrolidin-1-yl]pyridine-3-carboxamide]
+++ (“+++” means <3 uM) | C[C@@H]1CN(c2nc(-n3ccc(OCC(C)(C)C)n3)ccc2C(=O)NS(=O)(=O)c2cccc(N)n2)C(C)(C)C1 [Compound 1952, N-[(6-amino-2-pyridyl)sulfonyl]-6-[3-(2,2-dimethylpropoxy)pyrazol-1-yl]-2-[(4S)-2,2,4-trimethylpyrrolidin-1-yl]pyridine-3-carboxamide]
+++ (“+++” means <3 uM) | CC1CN(c2ncccc2C(=O)NS(=O)(=O)c2cccc(OCc3cccc(C(F)(F)F)c3)n2)C(C)(C)C1 (centres unmarked) [Compound 1953, N—[[6-[[3-(trifluoromethyl)phenyl]methoxy]-2-pyridyl]sulfonyl]-2-(2,2,4-trimethylpyrrolidin-1-yl)pyridine-3-carboxamide]
+++ (“+++” means <3 uM) | C[C@@H]1CN(c2nc(-c3cc(F)ccc3F)ccc2C(=O)NS(=O)(=O)c2ccc[nH]c2=O)C(C)(C)C1 [Compound 1954, 6-(2,5-difluorophenyl)-N-[(2-oxo-1H-pyridin-3-yl)sulfonyl]-2-[(4S)-2,2,4-trimethylpyrrolidin-1-yl]pyridine-3-carboxamide]
+++ (“+++” means <3 uM) | CC1CN(c2ncccc2C(=O)NS(=O)(=O)c2cccc(Oc3cccc4c3CCCC4)n2)C(C)(C)C1 (centres unmarked) [Compound 1955, N-[(6-tetralin-5-yloxy-2-pyridyl)sulfonyl]-2-(2,2,4-trimethylpyrrolidin-1-yl)pyridine-3-carboxamide]
++ (“++” means between 3 uM and 10 uM) | CC1CN(c2ncccc2C(=O)NS(=O)(=O)c2cccc(Oc3cncc(Cl)c3)n2)C(C)(C)C1 (centres unmarked) [Compound 1957, N—[[6-[(5-chloro-3-pyridyl)oxy]-2-pyridyl]sulfonyl]-2-(2,2,4-trimethylpyrrolidin-1-yl)pyridine-3-carboxamide]
+++ (“+++” means <3 uM) | C[C@@H]1CN(c2nc(-c3ccccc3)ccc2C(=O)NS(=O)(=O)c2cccnc2N)C(C)(C)C1 [Compound 1958, N-[(2-amino-3-pyridyl)sulfonyl]-6-phenyl-2-[(4S)-2,2,4-trimethylpyrrolidin-1-yl]pyridine-3-carboxamide]
+++ (“+++” means <3 uM) | COc1ccccc1Nc1cccc(S(=O)(=O)NC(=O)c2cccnc2N2CC(C)CC2(C)C)n1 (centres unmarked) [Compound 1959, N—[[6-(2-methoxyanilino)-2-pyridyl]sulfonyl]-2-(2,2,4-trimethylpyrrolidin-1-yl)pyridine-3-carboxamide]
+++ (“+++” means <3 uM) | C[C@@H]1CN(c2nc(-c3ccccc3C(F)(F)F)ccc2C(=O)NS(=O)(=O)c2ccc[nH]c2=O)C(C)(C)C1 [Compound 1960, N-[(2-oxo-1H-pyridin-3-yl)sulfonyl]-6-[2-(trifluoromethyl)phenyl]-2-[(4S)-2,2,4-trimethylpyrrolidin-1-yl]pyridine-3-carboxamide]
+++ (“+++” means <3 uM) | CC(C)COc1cc(F)cc(-c2ccc(C(=O)NS(=O)(=O)c3cccc(N)n3)c(C3=C[C@H](C)CC3(C)C)n2)c1 [Compound 1961]
+++ (“+++” means <3 uM) | COc1ccccc1-c1ccc(C(=O)NS(=O)(=O)c2cccnc2N)c(N2C[C@@H](C)CC2(C)C)n1 [Compound 1962, N-[(2-amino-3-pyridyl)sulfonyl]-6-(2-methoxyphenyl)-2-[(4S)-2,2,4-trimethylpyrrolidin-1-yl]pyridine-3-carboxamide]
+++ (“+++” means <3 uM) | Cc1cc(Cl)cc(-c2cnc(N3CC(C)CC3(C)C)c(C(=O)NS(=O)(=O)c3cccc(N)n3)c2)c1 (centres unmarked) [Compound 1963, N-[(6-amino-2-pyridyl)sulfonyl]-5-(3-chloro-5-methyl-phenyl)-2-(2,2,4-trimethylpyrrolidin-1-yl)pyridine-3-carboxamide]
+++ (“+++” means <3 uM) | CCOc1ccc(C)cc1-c1ccc(C(=O)NS(=O)(=O)c2cccnc2N)c(N2C[C@@H](C)CC2(C)C)n1 [Compound 1964, N-[(2-amino-3-pyridyl)sulfonyl]-6-(2-ethoxy-5-methyl-phenyl)-2-[(4S)-2,2,4-trimethylpyrrolidin-1-yl]pyridine-3-carboxamide]
+++ (“+++” means <3 uM) | COc1ccccc1COc1cccc(S(=O)(=O)NC(=O)c2cccnc2N2CC(C)CC2(C)C)n1 (centres unmarked) [Compound 1965, N-[[6-[(2-methoxyphenyl)methoxy]-2-pyridyl]sulfonyl]-2-(2,2,4-trimethylpyrrolidin-1-yl)pyridine-3-carboxamide]
+++ (“+++” means <3 uM) | CC(Oc1nc(N2C[C@@H](C)CC2(C)C)c(C(=O)NS(=O)(=O)c2cccc(N)n2)cc1F)C1CCCC1 (stereo partly drawn) [Compound 1966, N-[(6-amino-2-pyridyl)sulfonyl]-6-(1-cyclopentylethoxy)-5-fluoro-2-[(4S)-2,2,4-trimethylpyrrolidin-1-yl]pyridine-3-carboxamide]
++ (“++” means between 3 uM and 10 uM) | Cc1ccc(-c2ccc(C(=O)NS(=O)(=O)N3CC[C@H](N)C3)c(N3C[C@@H](C)CC3(C)C)n2)c(F)c1 [Compound 1967, N-[(3S)-3-aminopyrrolidin-1-yl]sulfonyl-6-(2-fluoro-4-methyl-phenyl)-2-[(4S)-2,2,4-trimethylpyrrolidin-1-yl]pyridine-3-carboxamide]
+++ (“+++” means <3 uM) | CC1CN(c2ncccc2C(=O)NS(=O)(=O)c2cccc(NCc3ccc(Cl)cc3Cl)n2)C(C)(C)C1 (centres unmarked) [Compound 1968, N—[[6-[(2,4-dichlorophenyl)methylamino]-2-pyridyl]sulfonyl]-2-(2,2,4-trimethylpyrrolidin-1-yl)pyridine-3-carboxamide]
+++ (“+++” means <3 uM) | CC1CN(c2ncccc2C(=O)NS(=O)(=O)c2cccc(NC3CCC(C(C)(C)C)CC3)n2)C(C)(C)C1 (centres unmarked) [Compound 1971, N—[[6-[(4-tert-butylcyclohexyl)amino]-2-pyridyl]sulfonyl]-2-(2,2,4-trimethylpyrrolidin-1-yl)pyridine-3-carboxamide]
+++ (“+++” means <3 uM) | COc1cccc(COc2cccc(S(=O)(=O)NC(=O)c3cccnc3N3CC(C)CC3(C)C)n2)c1 (centres unmarked) [Compound 1972, N—[[6-[(3-methoxyphenyl)methoxy]-2-pyridyl]sulfonyl]-2-(2,2,4-trimethylpyrrolidin-1-yl)pyridine-3-carboxamide]
+++ (“+++” means <3 uM) | Cc1cc(-c2ccc(C(=O)NS(=O)(=O)c3cccc(N)n3)c(N3C[C@@H](C)CC3(C)C)n2)cnc1OCCOC(C)C [Compound 1973, N-[(6-amino-2-pyridyl)sulfonyl]-6-[6-(2-isopropoxyethoxy)-5-methyl-3-pyridyl]-2-[(4S)-2,2,4-trimethylpyrrolidin-1-yl]pyridine-3-carboxamide]
+++ (“+++” means <3 uM) | CC(C)(C)c1ccc(C(=O)NS(=O)(=O)c2cccc(N)n2)c(N2CCC(C3CC3)C2(C)C)n1 (centres unmarked) [Compound 1974]

SMILES | EC30
CC(C)COc1cc(F)cc(-c2ccc(C(=O)NS(=O)(=O)N3CCC(F)(F)C3)c(N3C[C@@H](C)CC3(C)C)n2)c1 [Compound 1956, N-(3,3-difluoropyrrolidin-1-yl)sulfonyl-6-(3-fluoro-5-isobutoxy-phenyl)-2-[(4S)-2,2,4-trimethylpyrrolidin-1-yl]pyridine-3-carboxamide] | +++ (“+++” means <3 uM)
CC(C)COc1cccc(-c2ccc(C(=O)NS(=O)(=O)c3cccc(N)n3)c(N3C[C@@H](C)CC3(C)C)n2)c1 [Compound 1969, N-[(6-amino-2-pyridyl)sulfonyl]-6-(3-isobutoxyphenyl)-2-[(4S)-2,2,4-trimethylpyrrolidin-1-yl]pyridine-3-carboxamide] | +++ (“+++” means <3 uM)
CCC(C)Oc1ccn(-c2ccc(C(=O)NS(=O)(=O)c3cccnc3N)c(N3C[C@@H](C)CC3(C)C)n2)n1 (stereo partly drawn) [Compound 1970, N-[(2-amino-3-pyridyl)sulfonyl]-6-(3-sec-butoxypyrazol-1-yl)-2-[(4S)-2,2,4-trimethylpyrrolidin-1-yl]pyridine-3-carboxamide] | +++ (“+++” means <3 uM)

From patent US10758534B2 (Vertex Pharmaceuticals Incorporated, priority 2014, dated 2020)
